Laboratory results from ChEMBL document CHEMBL4613224, “Synthesis, in-vitro antiprotozoal activity and molecular docking study of isothiocyanate derivatives” (Bioorg Med Chem, 2020).
Active and inactive are the calls of the source. No cut-off for these calls is given here.

Legend:
[1] = tested on: Trypanosoma brucei brucei; experiment: Antitrypanosomal activity against Trypanosoma brucei brucei assessed as parasite growth inhibition; assay type: functional, organism-based
[2] = tested on: Trypanosoma brucei rhodesiense; experiment: Antitrypanosomal activity against bloodstream Trypanosoma brucei rhodesiense STIB900 assessed as parasite growth inhibition at 2 ug/ml measured after 70 hrs by Alamar blue assay relative to control; assay type: functional; conditions: STIB900, 70 h
[3] = Selectivity index, ratio of IC50 for rat L6 cells assessed as reduction in cell viability measured after 72 hrs by Alamar blue based inverted microscopy analysis to IC50 for Leishmania donovani MHOM-ET-67/L82 axenic amastigotes assessed as parasite growth inhibition measured after 72 hrs by Alamar blue based inverted microscopy analysis; assay type: toxicity; conditions: for selectivity ratio at 72 h: L6 cells, read-out: Ratio IC50
Trypanosoma cruzi [4] = experiment: Antitrypanosomal activity against Trypanosoma cruzi Tulahuen C4 trypomastigotes infected in rat L6 cells assessed as parasite growth inhibition at 2 ug/ml measured after 96 hrs by inverted microscopy analysis relative to control; assay type: functional; conditions: for inhibition at 2 µg/mL: Tulahuen C4, L6, 96 h
Leishmania donovani [5] = experiment: Antileishmanial activity against Leishmania donovani MHOM-ET-67/L82 axenic amastigotes assessed as parasite growth inhibition measured after 72 hrs by Alamar blue based inverted microscopy analysis; assay type: functional, organism-based; conditions: MHOM-ET-67/L82, 72 h
[6] = Selectivity index, ratio of IC50 for rat L6 cells assessed as reduction in cell viability measured after 72 hrs by Alamar blue based inverted microscopy analysis to IC50 for bloodstream Trypanosoma brucei rhodesiense STIB900 assessed as parasite growth inhibition measured after 70 hrs by Alamar blue assay; assay type: toxicity; conditions: read-out: Ratio IC50
[7] = Selectivity index, ratio of IC50 for rat L6 cells assessed as reduction in cell viability measured after 72 hrs by Alamar blue based inverted microscopy analysis to IC50 for Plasmodium falciparum NF54 measured after 24 hrs in presence of [3H] hypoxanthine by liquid scintillation counter analysis; assay type: toxicity; conditions: read-out: Ratio IC50
L6 = experiment: Cytotoxicity against rat L6 cells assessed as reduction in cell viability measured after 72 hrs by Alamar blue based inverted microscopy analysis; conditions: L6, 72 h, read-out: IC50
Leishmania donovani [8] = experiment: Antileishmanial activity against Leishmania donovani MHOM-ET-67/L82 axenic amastigotes assessed as parasite growth inhibition at 2 to 10 ug/ml measured after 72 hrs by Alamar blue based inverted microscopy analysis relative to control; assay type: functional
Plasmodium falciparum [9] = experiment: Antiplasmodial activity against Plasmodium falciparum NF54 measured after 24 hrs in presence of [3H] hypoxanthine by liquid scintillation counter analysis; assay type: functional, organism-based
[10] = tested on: Trypanosoma brucei rhodesiense; experiment: Antitrypanosomal activity against bloodstream Trypanosoma brucei rhodesiense STIB900 assessed as parasite growth inhibition measured after 70 hrs by Alamar blue assay; assay type: functional, organism-based; conditions: STIB900, 70 h
Plasmodium falciparum [11] = experiment: Antiplasmodial activity against Plasmodium falciparum K1 assessed as reduction in parasite growth by [3H]-hypoxanthine incorporation assay; assay type: functional, organism-based
Trypanosoma cruzi [12] = experiment: Antitrypanosomal activity against Trypanosoma cruzi Tulahuen C4 trypomastigotes infected in rat L6 cells assessed as parasite growth inhibition measured after 96 hrs by inverted microscopy analysis; assay type: functional, organism-based; conditions: Tulahuen C4, L6, 96 h
[13] = Selectivity index, ratio of IC50 for rat L6 cells assessed as reduction in cell viability measured after 72 hrs by Alamar blue based inverted microscopy analysis to IC50 for Trypanosoma cruzi Tulahuen C4 trypomastigotes infected in rat L6 cells assessed as parasite growth inhibition measured after 96 hrs by inverted microscopy analysis; assay type: toxicity; conditions: read-out: Ratio IC50
Leishmania donovani [14] = experiment: Potency index, ratio of miltefosine IC50 to test compound IC50 for antileishmanial activity against Leishmania donovani MHOM-ET-67/L82 axenic amastigotes assessed as parasite growth inhibition measured after 72 hrs by Alamar blue based inverted microscopy analysis; assay type: functional

Compound `CC(C)=C[C@H]1C[C@H](/C=C/c2[nH]c3ccccc3c2CCN(C)C)n2c1c(CCN(C)C)c1ccccc12` has an IC50 [1] of 6.2 µM.
For `C[C@@H](CCCN=C=S)[C@H]1CC[C@H]2[C@@H]3[C@H](O)C[C@@H]4C[C@H](O)CC[C@]4(C)[C@H]3C[C@H](O)[C@]12C`, the inhibition at 2 µg/mL [2] was over 50%, the selectivity ratio at 72 h [3] was 7.8 and the inhibition (Trypanosoma cruzi [4]) was “inactive”. For the same compound, the IC50 (Leishmania donovani [5]) was 0.5 µM, the selectivity ratio at 72 h [6] was 2.9 and the selectivity ratio at 72 h [7] was 0.7. For the same compound, the IC50 (L6) was 3.9 µM, the “inhibition (INH)” value (Leishmania donovani [8]) was over 90% and the IC50 (Plasmodium falciparum [9]) was 5.2 µM. The IC50 [10] was 1.3 µM.
For `COc1ccc2c(c1OC)CO[C@@H]2[C@H]1c2c(cc3c(c2OC)OCO3)CCN1C(CN=C=S)c1ccc2c(c1)Cc1ccccc1-2` (stereo not given in full), the inhibition at 2 µg/mL [2] was over 50%, the selectivity ratio at 72 h [3] was 3.1 and the inhibition (Trypanosoma cruzi [4]) was “inactive”. It also gave an IC50 (Leishmania donovani [5]) of 1.3 µM, a selectivity ratio at 72 h [6] of 0.6 and a selectivity ratio at 72 h [7] of 1.5. For the same compound, the IC50 (L6) was 3.9 µM, the “inhibition (INH)” value (Leishmania donovani [8]) was over 90% and the IC50 (Plasmodium falciparum [9]) was 2.6 µM. It also gave an IC50 [10] of 6.5 µM.
For `CC(C)c1ccc2c(c1)CC[C@H]1[C@](C)(CN=C=S)CCC[C@]21C`, the inhibition at 2 µg/mL [2] was over 50%, the selectivity ratio at 72 h [3] was 2.4 and the inhibition (Trypanosoma cruzi [4]) was “inactive”. For the same compound, the IC50 (Leishmania donovani [5]) was 4.2 µM, the selectivity ratio at 72 h [6] was 1.8 and the selectivity ratio at 72 h [7] was 9.4. For the same compound, the IC50 (L6) was 10 µM, the “inhibition (INH)” value (Leishmania donovani [8]) was over 90% and the IC50 (Plasmodium falciparum [9]) was 1.1 µM. For the same compound, the IC50 [10] was 5.7 µM.
`COc1ccc([C@H](O)[C@H]2c3c(cc4c(c3OC)OCO4)CCN2C)c(CO)c1OC` showed an IC50 (Plasmodium falciparum [11]) of 8 µM.
For `S=C=NCCc1c[nH]c2ccccc12`, the inhibition at 2 µg/mL [2] was over 50%, the selectivity ratio at 72 h [3] was 4.2 and the inhibition (Trypanosoma cruzi [4]) was “inactive”. For the same compound, the IC50 (Leishmania donovani [5]) was 1.7 µM, the selectivity ratio at 72 h [6] was 1.8 and the selectivity ratio at 72 h [7] was 0.7. For the same compound, the IC50 (L6) was 7.1 µM, the “inhibition (INH)” value (Leishmania donovani [8]) was over 90% and the IC50 (Plasmodium falciparum [9]) was 10.3 µM. The IC50 [10] was 4 µM.
In the case of `CNCCc1c([C@H]2[C@H]3[C@H](C=C(C)CC3(C)C)c3c(CCNC)c4ccccc4n32)[nH]c2ccccc12`, the IC50 [1] is reported as 2.8 µM.
With `COC(=O)[C@H](Cc1c[nH]c2ccccc12)N=C=S` the inhibition at 2 µg/mL [2] was over 50%, the “Ratio IC50” value ([3]; 72 h) was 14.4 and the selectivity ratio at 72 h [3] was 10.9. For the same compound, the inhibition (Trypanosoma cruzi [4]) was “inactive”, the IC50 (Leishmania donovani [5]) was 7.1 µM and the selectivity ratio at 72 h [6] was 3.5. The selectivity ratio at 72 h [7] was 7.7, the IC50 (L6) was 78.1 µM and the “inhibition (INH)” value (Leishmania donovani [8]) was over 90%. The IC50 (Plasmodium falciparum [9]) was 10.2 µM and the IC50 [10] was 22.5 µM.
Compound `COc1ccc2c(c1OC)CO[C@@H]2[C@H]1c2c(cc3c(c2OC)OCO3)CCN1C(CN=C=S)c1cccnc1` (stereo not given in full) has an inhibition at 2 µg/mL [2] of over 50%, a selectivity ratio at 72 h [3] of 8 and an IC50 (Trypanosoma cruzi [12]) of 1.9 µM. The inhibition at 2 µg/mL (Trypanosoma cruzi [4]) was 100%, the IC50 (Leishmania donovani [5]) was 0.9 µM and the selectivity ratio at 72 h [6] was 2.6. The selectivity ratio at 72 h [7] was 2.9, the IC50 (L6) was 7.1 µM and the “inhibition (INH)” value (Leishmania donovani [8]) was over 90%. It also gave a selectivity ratio at 72 h [13] of 3.8, an IC50 (Plasmodium falciparum [9]) of 2.5 µM and an IC50 [10] of 2.7 µM.
For `COc1ccc2c(c1OC)CO[C@@H]2[C@H]1c2c(cc3c(c2OC)OCO3)CCN1[C@@H](CN)c1ccc(F)cc1`, the inhibition at 2 µg/mL [2] was over 50%, the IC50 (Trypanosoma cruzi [12]) was 10.6 µM and the inhibition at 2 µg/mL (Trypanosoma cruzi [4]) was 53%. For the same compound, the selectivity ratio at 72 h [6] was 29.3, the selectivity ratio at 72 h [7] was 14.5 and the IC50 (L6) was 38.8 µM. It also gave a selectivity ratio at 72 h [13] of 3.7, an IC50 (Plasmodium falciparum [9]) of 2.7 µM and an IC50 [10] of 1.3 µM.
With `O=C(Cn1ccnc1[N+](=O)[O-])NCc1ccccc1` [BENZNIDAZOLE] the selectivity ratio at 72 h [3] was 196, the IC50 (Trypanosoma cruzi [12]) was 2.41 µM and the IC50 (L6) was over 380 µM. It also gave a selectivity ratio at 72 h [13] of over 158.
In the case of `COc1ccc2c(c1OC)CO[C@@H]2[C@H]1c2c(cc3c(c2OC)OCO3)CCN1[C@@H](CN=C=S)c1ccc(F)cc1`, the inhibition at 2 µg/mL [2] is reported as over 50%, the selectivity ratio at 72 h [3] is reported as 17.5 and the inhibition (Trypanosoma cruzi [4]) is reported as “inactive”. The IC50 (Leishmania donovani [5]) was 0.8 µM, the selectivity ratio at 72 h [6] was 8 and the selectivity ratio at 72 h [7] was 6.5. The IC50 (L6) was 13.6 µM, the “inhibition (INH)” value (Leishmania donovani [8]) was over 90% and the IC50 (Plasmodium falciparum [9]) was 2.1 µM. It also gave an IC50 [10] of 1.7 µM.
For `C[C@@H](CCCN=C=S)[C@H]1CC[C@H]2[C@@H]3[C@H](O)C[C@@H]4C[C@H](O)CC[C@]4(C)[C@H]3CC[C@]12C`, the inhibition at 2 µg/mL [2] was over 50%, the selectivity ratio at 72 h [3] was 3.6 and the inhibition (Trypanosoma cruzi [4]) was “inactive”. It also gave an IC50 (Leishmania donovani [5]) of 1.5 µM, a selectivity ratio at 72 h [6] of 1.2 and a selectivity ratio at 72 h [7] of 1.1. For the same compound, the IC50 (L6) was 5.4 µM, the “inhibition (INH)” value (Leishmania donovani [8]) was over 90% and the IC50 (Plasmodium falciparum [9]) was 4.9 µM. It also gave an IC50 [10] of 4.5 µM.
With `C[C@@H](CCCN=C=S)[C@H]1CC[C@H]2[C@@H]3CC[C@@H]4C[C@H](O)CC[C@]4(C)[C@H]3C[C@H](O)[C@]12C` the inhibition at 2 µg/mL [2] was over 50%, the selectivity ratio at 72 h [3] was 9.9 and the inhibition (Trypanosoma cruzi [4]) was “inactive”. For the same compound, the IC50 (Leishmania donovani [5]) was 0.4 µM, the “Ratio IC50” value (Leishmania donovani [14]) was 2 and the selectivity ratio at 72 h [6] was 3.3. The selectivity ratio at 72 h [7] was 1.1, the IC50 (L6) was 3.6 µM and the “inhibition (INH)” value (Leishmania donovani [8]) was over 90%. It also gave an IC50 (Plasmodium falciparum [9]) of 3.4 µM and an IC50 [10] of 1.1 µM.
For `COc1ccc2c(c1OC)CO[C@@H]2[C@H]1c2c(cc3c(c2OC)OCO3)CCN1C(CN=C=S)c1ccccc1` (stereo not given in full), the inhibition at 2 µg/mL [2] was over 50%, the selectivity ratio at 72 h [3] was 18.4 and the inhibition (Trypanosoma cruzi [4]) was “inactive”. It also gave an IC50 (Leishmania donovani [5]) of 1 µM, a selectivity ratio at 72 h [6] of 8.2 and a selectivity ratio at 72 h [7] of 5.07. For the same compound, the IC50 (L6) was 18.7 µM, the “inhibition (INH)” value (Leishmania donovani [8]) was over 90% and the IC50 (Plasmodium falciparum [9]) was 3.7 µM. It also gave an IC50 [10] of 2.3 µM.
In the case of `C[C@@H](CCCN=C=S)[C@H]1CC[C@H]2[C@@H]3CC[C@@H]4C[C@H](O)CC[C@]4(C)[C@H]3CC[C@]12C`, the inhibition at 2 µg/mL [2] is reported as over 50%, the selectivity ratio at 72 h [3] is reported as 0.8 and the inhibition (Trypanosoma cruzi [4]) is reported as “inactive”. For the same compound, the IC50 (Leishmania donovani [5]) was 5.4 µM, the selectivity ratio at 72 h [6] was 0.5 and the selectivity ratio at 72 h [7] was 1.1. For the same compound, the IC50 (L6) was 4.5 µM, the “inhibition (INH)” value (Leishmania donovani [8]) was over 90% and the IC50 (Plasmodium falciparum [9]) was 4.1 µM. For the same compound, the IC50 [10] was 9.7 µM.
